Source: patent US20250230193A1, “CYCLIC COMPOUND HAVING SELECTIVE KRAS INHIBITORY EFFECT ON HRAS AND NRAS” (CHUGAI SEIYAKU KABUSHIKI KAISHA, priority 2022, published 2025)

What was measured:
[1] = biological target: GDP-bound NRAS wild-type protein (Homo sapiens, UniProt P01111); experiment: Binding to NRAS by surface plasmon resonance (SPR), Single Cycle Kinetics; conditions: SPR, GDP-bound NRAS wild-type vs GDP-bound KRAS wild-type
[2] = biological target: GDP-bound HRAS wild-type protein (Homo sapiens, UniProt P01112); experiment: Binding to HRAS by surface plasmon resonance (SPR), Single Cycle Kinetics; conditions: SPR, GDP-bound HRAS wild-type vs GDP-bound KRAS wild-type
GDP-bound HRAS wild-type protein, sequence (P01112 whole entry): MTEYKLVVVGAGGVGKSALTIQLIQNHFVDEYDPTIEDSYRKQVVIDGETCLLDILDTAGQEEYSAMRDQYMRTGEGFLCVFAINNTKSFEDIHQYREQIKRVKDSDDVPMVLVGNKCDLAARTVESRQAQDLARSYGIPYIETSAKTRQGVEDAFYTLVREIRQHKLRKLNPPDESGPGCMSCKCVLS

GDP-bound NRAS wild-type protein, sequence (P01111 whole entry): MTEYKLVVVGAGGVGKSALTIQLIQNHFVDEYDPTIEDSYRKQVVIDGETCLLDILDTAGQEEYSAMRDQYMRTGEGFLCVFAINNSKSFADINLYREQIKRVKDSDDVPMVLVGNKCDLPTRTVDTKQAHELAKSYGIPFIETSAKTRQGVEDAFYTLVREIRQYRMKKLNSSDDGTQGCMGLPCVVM

Compound: CCO[C@@H]1C[C@H]2C(=O)NC3(CC(C)(C)C3)C(=O)N(C)[C@@H](C3CCCC3)C(=O)N(C)[C@H](C(=O)N(C)CC)CC(=O)N(C)[C@H]3CCCCCc4ccc(cc4)C[C@@H](C(=O)N(C)CC(=O)N[C@@H](CCc4ccc(C(F)(F)F)c(OC)c4)C(=O)N2C1)N1CC/C=C\C[C@@H](C1=O)N(C)C(=O)CN(C)C(=O)[C@H]([C@@H](C)CC)NC3=O [PP2259]
- NRAS/KRAS (ratio of KD value with respect to NRAS to KD value with respect to KRAS) [1]: A (a compound having 10 or more and less than 20 is denoted as A)
- HRAS/KRAS (ratio of KD value with respect to HRAS to KD value with respect to KRAS) [2]: B (a compound having 3 or more and less than 10 is denoted as B)

Compound: CCO[C@@H]1C[C@H]2C(=O)NC3(CC(C)(C)C3)C(=O)N(C)[C@@H](C3CCCC3)C(=O)N(C)[C@H](C(=O)N(C)CC)CC(=O)N(C)[C@H]3CCCCCCc4ccc(cc4)C[C@@H](C(=O)N(C)CC(=O)N[C@@H](CCc4ccc(C(F)(F)F)c(OC)c4)C(=O)N2C1)N1CC/C=C\C[C@@H](C1=O)N(C)C(=O)CN(C)C(=O)[C@H]([C@@H](C)CC)NC3=O [PP2260, (1S,7S,11R,13S,19S,22S,26S,29S,35S,37Z)-19-cyclopentyl-11-ethoxy-N-ethyl-7-[2-[3-methoxy-4-(trifluoromethyl)phenyl]ethyl]-N,3,3′,3′,18,21,25,31,34-nonamethyl-29-[(1S)-1-methylpropyl]-2,5,8,14,17,20,24,27,30,33,55-undecaoxo-spiro[3,6,9,15,18,21,25,28,31,34,41-undecazapentacyclo[24.15.11.2^43,46.1^35,41.0^9,13]pentapentaconta-37,43(54),44,46(53)-tetraene-16,1′-cyclobutane]-22-carboxamide]
- NRAS/KRAS (ratio of KD value with respect to NRAS to KD value with respect to KRAS) [1]: A (a compound having 10 or more and less than 20 is denoted as A)
- HRAS/KRAS (ratio of KD value with respect to HRAS to KD value with respect to KRAS) [2]: A (a compound having 10 or more and less than 20 is denoted as A)

Compound: CCO[C@@H]1C[C@H]2C(=O)NC3(CCC3)C(=O)N(C)[C@@H](C3CCCC3)C(=O)N(C)[C@H](C(=O)N(C)C)CC(=O)N(C)[C@H]3CCCCCc4ccc(cc4)C[C@@H](C(=O)N(C)CC(=O)N[C@@H](CCc4cc(F)c(C(F)(F)F)c(F)c4)C(=O)N2C1)N1CC/C=C\C[C@@H](C1=O)N(C)C(=O)CN(C)C(=O)[C@H]([C@@H](C)CC)NC3=O [PP2261]
- NRAS/KRAS (ratio of KD value with respect to NRAS to KD value with respect to KRAS) [1]: A (a compound having 10 or more and less than 20 is denoted as A)
- HRAS/KRAS (ratio of KD value with respect to HRAS to KD value with respect to KRAS) [2]: A (a compound having 10 or more and less than 20 is denoted as A)

Compound: CCO[C@@H]1C[C@H]2C(=O)NC3(CCC3)C(=O)N(C)[C@@H](C3CCCC3)C(=O)N(C)[C@H](C(=O)N(C)C)CC(=O)N(C)[C@H]3CCCCCc4ccc(cc4)C[C@@H](C(=O)N(C)CC(=O)N[C@@H](CCc4ccc(C(F)(F)F)c(OC)c4)C(=O)N2C1)N1CC/C=C\C[C@@H](C1=O)N(C)C(=O)CN(C)C(=O)[C@H]([C@@H](C)CC)NC3=O [PP2262]
- NRAS/KRAS (ratio of KD value with respect to NRAS to KD value with respect to KRAS) [1]: A (a compound having 10 or more and less than 20 is denoted as A)
- HRAS/KRAS (ratio of KD value with respect to HRAS to KD value with respect to KRAS) [2]: B (a compound having 3 or more and less than 10 is denoted as B)

Compound: CCO[C@@H]1C[C@H]2C(=O)NC3(CCC3)C(=O)N(C)[C@@H](C3CCCC3)C(=O)N(C)[C@H](C(=O)N(C)CC)CC(=O)N(C)[C@H]3CCCCCCc4ccc(cc4)C[C@@H](C(=O)N(C)CC(=O)N[C@@H](CCc4ccc(C(F)(F)F)c(OC)c4)C(=O)N2C1)N1CC/C=C\C[C@@H](C1=O)N(C)C(=O)CN(C)C(=O)[C@H]([C@@H](C)CC)NC3=O [PP2263]
- NRAS/KRAS (ratio of KD value with respect to NRAS to KD value with respect to KRAS) [1]: A (a compound having 10 or more and less than 20 is denoted as A)
- HRAS/KRAS (ratio of KD value with respect to HRAS to KD value with respect to KRAS) [2]: A (a compound having 10 or more and less than 20 is denoted as A)

Compound: CCO[C@@H]1C[C@H]2C(=O)NC3(CCC3)C(=O)N(C)[C@@H](C3CCCC3)C(=O)N(C)[C@H](C(=O)N(C)C)CC(=O)N(C)[C@H]3CCCCCCc4ccc(cc4)C[C@@H](C(=O)N(C)CC(=O)N[C@@H](CCc4ccc(C(F)(F)F)c(OC)c4)C(=O)N2C1)N1CC/C=C\C[C@@H](C1=O)N(C)C(=O)CN(C)C(=O)[C@H]([C@@H](C)CC)NC3=O [PP2264]
- NRAS/KRAS (ratio of KD value with respect to NRAS to KD value with respect to KRAS) [1]: AA (a compound having 20 or more is denoted as AA)
- HRAS/KRAS (ratio of KD value with respect to HRAS to KD value with respect to KRAS) [2]: A (a compound having 10 or more and less than 20 is denoted as A)

Compound: CC[C@H](C)[C@@H]1NC(=O)[C@H](CC(C)C)N(C)C(=O)C[C@@H](C(=O)N(C)C)N(C)C(=O)[C@H](C2CCCC2)N(C)C(=O)C2(CCCC2)NC(=O)[C@@H]2C[C@H](C)CN2C(=O)[C@H](CCc2cc(F)c(C(F)(F)F)c(F)c2)NC(=O)CN(C)C(=O)[C@H](Cc2ccc(C(F)(F)F)cc2)N2CC/C=C\C[C@@H](C2=O)N(C)C(=O)CN(C)C1=O [PP2268]
- NRAS/KRAS (ratio of KD value with respect to NRAS to KD value with respect to KRAS) [1]: A (a compound having 10 or more and less than 20 is denoted as A)
- HRAS/KRAS (ratio of KD value with respect to HRAS to KD value with respect to KRAS) [2]: A (a compound having 10 or more and less than 20 is denoted as A)

Compound: CCO[C@@H]1C[C@H]2C(=O)NC3(CCCC3)C(=O)N(C)[C@@H](C3CCCC3)C(=O)N(C)[C@H](C(=O)N(C)C)CC(=O)N(C)[C@@H](CC(C)C)C(=O)N[C@@H]([C@@H](C)CC)C(=O)N(C)CC(=O)N(C)[C@H]3C/C=C\CCN(C3=O)[C@@H](Cc3ccc(C(F)(F)F)cc3)C(=O)N(C)CC(=O)N[C@@H](CCc3cc(F)c(Cl)c(F)c3)C(=O)N2C1 [PP2269]
- NRAS/KRAS (ratio of KD value with respect to NRAS to KD value with respect to KRAS) [1]: A (a compound having 10 or more and less than 20 is denoted as A)
- HRAS/KRAS (ratio of KD value with respect to HRAS to KD value with respect to KRAS) [2]: A (a compound having 10 or more and less than 20 is denoted as A)

Compound: CCC[C@H]1C(=O)N[C@@H]([C@@H](C)CC)C(=O)N(C)CC(=O)N(C)[C@H]2C/C=C\CCN(C2=O)[C@@H](Cc2ccc(C(F)(F)F)cc2)C(=O)N(C)CC(=O)N[C@@H](CCc2ccc(C(F)(F)F)c(Cl)c2)C(=O)N2C[C@@H](C)C[C@H]2C(=O)NC2(CC(C)(C)C2)C(=O)N(C)[C@@H](C2CCCC2)C(=O)N(C)[C@H](C(=O)N(C)C)CC(=O)N1C [PP2270]
- NRAS/KRAS (ratio of KD value with respect to NRAS to KD value with respect to KRAS) [1]: B (a compound having 3 or more and less than 10 is denoted as B)
- HRAS/KRAS (ratio of KD value with respect to HRAS to KD value with respect to KRAS) [2]: B (a compound having 3 or more and less than 10 is denoted as B)

Compound: CC[C@@H]1C[C@H]2C(=O)NC3(CCCC3)C(=O)N(C)[C@@H](C3CCCC3)C(=O)N(C)[C@H](C(=O)N(C)CC)CC(=O)N(C)[C@@H](C)C(=O)N[C@@H]([C@@H](C)CC)C(=O)N(C)CC(=O)N(C)[C@H]3C/C=C\CCN(C3=O)[C@@H](Cc3ccc(C(F)(F)F)cc3)C(=O)N(C)CC(=O)N[C@@H](CCc3cc(F)c(C(F)(F)F)c(F)c3)C(=O)N2C1 [PP2271]
- NRAS/KRAS (ratio of KD value with respect to NRAS to KD value with respect to KRAS) [1]: A (a compound having 10 or more and less than 20 is denoted as A)
- HRAS/KRAS (ratio of KD value with respect to HRAS to KD value with respect to KRAS) [2]: A (a compound having 10 or more and less than 20 is denoted as A)

Compound: CCC[C@@H]1C[C@H]2C(=O)NC3(CCCC3)C(=O)N(C)[C@@H](C3CCCC3)C(=O)N(C)[C@H](C(=O)N(C)CC)CC(=O)N(C)[C@@H](C)C(=O)N[C@@H]([C@@H](C)CC)C(=O)N(C)CC(=O)N(C)[C@H]3C/C=C\CCN(C3=O)[C@@H](Cc3ccc(C(F)(F)F)cc3)C(=O)N(C)CC(=O)N[C@@H](CCc3cc(F)c(C(F)(F)F)c(F)c3)C(=O)N2C1 [PP2272]
- NRAS/KRAS (ratio of KD value with respect to NRAS to KD value with respect to KRAS) [1]: AA (a compound having 20 or more is denoted as AA)
- HRAS/KRAS (ratio of KD value with respect to HRAS to KD value with respect to KRAS) [2]: A (a compound having 10 or more and less than 20 is denoted as A)

Compound: CCC[C@@H]1C[C@H]2C(=O)NC3(CC(C)(C)C3)C(=O)N(C)[C@@H](C3CCCC3)C(=O)N(C)[C@H](C(=O)N(C)C)CC(=O)N(C)[C@@H](C)C(=O)N[C@@H]([C@@H](C)CC)C(=O)N(C)CC(=O)N(C)[C@H]3C/C=C\CCN(C3=O)[C@@H](Cc3ccc(C(F)(F)F)cc3)C(=O)N(C)CC(=O)N[C@@H](CCc3cc(F)c(C(F)(F)F)c(F)c3)C(=O)N2C1 [PP2273]
- NRAS/KRAS (ratio of KD value with respect to NRAS to KD value with respect to KRAS) [1]: AA (a compound having 20 or more is denoted as AA)
- HRAS/KRAS (ratio of KD value with respect to HRAS to KD value with respect to KRAS) [2]: A (a compound having 10 or more and less than 20 is denoted as A)

Compound: CCC[C@@H]1C[C@H]2C(=O)NC3(CC(C)(C)C3)C(=O)N(C)[C@@H](C3CCCC3)C(=O)N(C)[C@H](C(=O)N(C)C)CC(=O)N(C)[C@@H](COC)C(=O)N[C@@H]([C@@H](C)CC)C(=O)N(C)CC(=O)N(C)[C@H]3C/C=C\CCN(C3=O)[C@@H](Cc3ccc(C(F)(F)F)cc3)C(=O)N(C)CC(=O)N[C@@H](CCc3ccc(C(F)(F)F)c(Cl)c3)C(=O)N2C1 [PP2275]
- NRAS/KRAS (ratio of KD value with respect to NRAS to KD value with respect to KRAS) [1]: A (a compound having 10 or more and less than 20 is denoted as A)
- HRAS/KRAS (ratio of KD value with respect to HRAS to KD value with respect to KRAS) [2]: A (a compound having 10 or more and less than 20 is denoted as A)

Compound: CCC[C@H]1C(=O)N[C@@H]([C@@H](C)CC)C(=O)N(C)CC(=O)N(C)[C@H]2C/C=C\CCN(C2=O)[C@@H](Cc2ccc(C(F)(F)F)cc2)C(=O)N(C)CC(=O)N[C@@H](CCc2ccc(C(F)(F)F)c(OC)c2)C(=O)N2C[C@H](OCC)C[C@H]2C(=O)N(C)C2(CCC2)C(=O)N(C)[C@@H](C2CCCC2)C(=O)N(C)[C@H](C(=O)N(C)C)CC(=O)N1C [PP2312]
- NRAS/KRAS (ratio of KD value with respect to NRAS to KD value with respect to KRAS) [1]: A (a compound having 10 or more and less than 20 is denoted as A)
- HRAS/KRAS (ratio of KD value with respect to HRAS to KD value with respect to KRAS) [2]: B (a compound having 3 or more and less than 10 is denoted as B)

Compound: CCC[C@H]1C(=O)N[C@@H]([C@@H](C)CC)C(=O)N(C2CC2)CC(=O)N(C)[C@H]2C/C=C\CCN(C2=O)[C@@H](Cc2ccc(C(F)(F)F)cc2)C(=O)N(C)CC(=O)N[C@@H](CCc2ccc(C(F)(F)F)c(OC)c2)C(=O)N2C[C@H](OCC)C[C@H]2C(=O)N(C)C2(CCC2)C(=O)N(C)[C@@H](C(CC)CC)C(=O)N(C)[C@H](C(=O)N(C)C)CC(=O)N1C [PP2313]
- NRAS/KRAS (ratio of KD value with respect to NRAS to KD value with respect to KRAS) [1]: AA (a compound having 20 or more is denoted as AA)
- HRAS/KRAS (ratio of KD value with respect to HRAS to KD value with respect to KRAS) [2]: A (a compound having 10 or more and less than 20 is denoted as A)
